From patent US20230081426A1, “COMPOUNDS AND METHODS FOR KRAS MODULATION AND INDICATIONS THEREFOR” (Plexxikon Inc., priority 2020, published 2023)

What was measured:
[1] = target: T1, G12D-mutant human KRAS (amino acid residues 1-188) (Homo sapiens, UniProt P01116, G12D); assay: KRAS Binding Disruption Assay (AlphaScreen; biotinylated KRpep-2d analogue or RAF1-RBD), G12D; details: KRAS G12D; geometric mean; read-out: KRAS GMean IC50 (uM) MUTATION: G12D
T1 construct: G12D or G12C-mutant human KRAS (amino acid residues 1-188) with FLAG tag; made in house; host or cells: E. coli
Summary of the method: (§1)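 Mutant KRAS (5-20 nM) incubated 1 h at 25° C with test compound and 5-20 nM biotinylated KRpep-2d analogue or RAF1-RBD in 20 mM HEPES pH 7.5, 100 mM NaCl, 5 mM MgCl2, 0.01% Tween-20, 0.01% BSA.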

[2] = target: T2, G12C-mutant human KRAS (amino acid residues 1-188) (Homo sapiens, UniProt P01116, G12C); assay: KRAS Binding Disruption Assay (AlphaScreen; biotinylated KRpep-2d analogue or RAF1-RBD), G12C; details: geometric mean, read-out: KRAS GMean IC50 (uM) MUTATION: G12C
T2 construct: G12D or G12C-mutant human KRAS (amino acid residues 1-188) with FLAG tag; made in house; host or cells: E. coli
Summary of the method: as §1

T2 sequence (P01116 1-188 isoform P01116-2 G12C): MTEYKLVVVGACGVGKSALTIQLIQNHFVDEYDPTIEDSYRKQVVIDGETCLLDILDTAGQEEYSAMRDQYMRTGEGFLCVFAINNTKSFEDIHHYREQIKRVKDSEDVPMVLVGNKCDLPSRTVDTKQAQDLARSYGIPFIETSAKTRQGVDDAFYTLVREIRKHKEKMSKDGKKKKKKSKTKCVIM
T1 sequence (P01116 1-188 isoform P01116-2 G12D): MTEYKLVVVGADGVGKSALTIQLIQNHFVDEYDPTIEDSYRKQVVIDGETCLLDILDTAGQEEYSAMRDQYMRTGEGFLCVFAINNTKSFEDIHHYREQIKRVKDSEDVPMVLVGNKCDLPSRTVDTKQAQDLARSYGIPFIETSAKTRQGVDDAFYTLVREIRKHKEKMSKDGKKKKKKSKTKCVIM

IC50 [1] | IC50 [2] | Compound
0.0001 to 10 µM | 10 to 100 µM | OCCOc1nc(N2C[C@H]3CC[C@@H](C2)N3)c2ccc(-c3cc(O)cc4ccccc34)c(F)c2n1 [P-0784, 4-(4-((1R,5S)-3,8-diazabicyclo[3.2.1]octan-3-yl)-8-fluoro-2-(2-hydroxyethoxy)quinazolin-7-yl)naphthalen-2-ol]
0.0001 to 10 µM | 10 to 100 µM | CC(CCBr)Oc1nc(N2C[C@H]3CC[C@@H](C2)N3)c2ccc(-c3cc(O)cc4ccccc34)c(F)c2n1 (stereo partly drawn) [P-0755, 4-(4-((1R,5S)-3,8-diazabicyclo[3.2.1]octan-3-yl)-2-((4-bromobutan-2-yl)oxy)-8-fluoroquinazolin-7-yl)naphthalen-2-ol]
0.0001 to 10 µM | 10 to 100 µM | CCc1cccc2[nH]cc(-c3ccc4c(N5C[C@H]6CC[C@@H](C5)N6)nc(OCC56CCCN5CCC6)nc4c3)c12 [P-0698, 4-((1R,5S)-3,8-diazabicyclo[3.2.1]octan-3-yl)-7-(4-ethyl-1H-indol-3-yl)-2-((tetrahydro-1H-pyrrolizin-7a(5H)-yl)methoxy)quinazoline]
0.0001 to 10 µM | 0.0001 to 10 µM | OCC1(COc2nc(N3C[C@H]4CC[C@@H](C3)N4)c3ccc(-c4cc(O)cc5ccccc45)c(F)c3n2)CCC1 [P-0651, 4-(4-((1R,5S)-3,8-diazabicyclo[3.2.1]octan-3-yl)-8-fluoro-2-((1-(hydroxymethyl)cyclobutyl)methoxy)quinazolin-7-yl)naphthalen-2-ol]
0.0001 to 10 µM | 10 to 100 µM | CN1CCC[C@H]1COc1nc(N2C[C@H]3CC[C@@H](C2)N3)c2ccc(-c3c[nH]c4cccc(C(F)(F)F)c34)cc2n1 [P-0729, 4-((1R,5S)-3,8-diazabicyclo[3.2.1]octan-3-yl)-2-(((S)-1-methylpyrrolidin-2-yl)methoxy)-7-(4-(trifluoromethyl)-1H-indol-3-yl)quinazoline]
0.0001 to 10 µM | 0.0001 to 10 µM | Fc1c(-c2c[nH]c3cccc(CC4CC4)c23)ccc2c(N3C[C@H]4CC[C@@H](C3)N4)nc(OCC34CCCN3CCC4)nc12 [P-0653, 4-((1R,5S)-3,8-diazabicyclo[3.2.1]octan-3-yl)-7-(4-(cyclopropylmethyl)-1H-indol-3-yl)-8-fluoro-2-((tetrahydro-1H-pyrrolizin-7a(5H)-yl)methoxy)quinazoline]
0.0001 to 10 µM | 10 to 100 µM | Oc1cc(-c2ccc3c(N4C[C@H]5CC[C@@H](C4)N5)nc(OCC4CCOCC4)nc3c2F)c2ccccc2c1 [P-0805, 4-(4-((1R,5S)-3,8-diazabicyclo[3.2.1]octan-3-yl)-8-fluoro-2-((tetrahydro-2H-pyran-4-yl)methoxy)quinazolin-7-yl)naphthalen-2-ol]
0.0001 to 10 µM | 0.0001 to 10 µM | Fc1ccc2[nH]cc(-c3ccc4c(N5C[C@H]6CC[C@@H](C5)N6)nc(OCC56CCCN5CCC6)nc4c3F)c2c1F [P-0763, 4-((1R,5S)-3,8-diazabicyclo[3.2.1]octan-3-yl)-7-(4,5-difluoro-1H-indol-3-yl)-8-fluoro-2-((tetrahydro-1H-pyrrolizin-7a(5H)-yl)methoxy)quinazoline]
0.0001 to 10 µM | 10 to 100 µM | CNCCc1nc(N2C[C@H]3CC[C@@H](C2)N3)c2ccc(-c3cc(O)cc4ccccc34)c(F)c2n1 [P-0754, 4-(4-((1R,5S)-3,8-diazabicyclo[3.2.1]octan-3-yl)-8-fluoro-2-(2-(methylamino)ethyl)quinazolin-7-yl)naphthalen-2-ol]
0.0001 to 10 µM | 10 to 100 µM | Cc1cc(COc2nc(N3C[C@H]4CC[C@@H](C3)N4)c3ccc(-c4cc(O)cc5ccccc45)c(F)c3n2)no1 [P-0777, 4-(4-((1R,5S)-3,8-diazabicyclo[3.2.1]octan-3-yl)-8-fluoro-2-((5-methylisoxazol-3-yl)methoxy)quinazolin-7-yl)naphthalen-2-ol]
0.0001 to 10 µM | 10 to 100 µM | CC(=O)NC(C)(C)COc1nc(N2C[C@H]3CC[C@@H](C2)N3)c2ccc(-c3cc(O)cc4ccccc34)c(F)c2n1 [P-0717, N-(1-((4-((1R,5S)-3,8-diazabicyclo[3.2.1]octan-3-yl)-8-fluoro-7-(3-hydroxynaphthalen-1-yl)quinazolin-2-yl)oxy)-2-methylpropan-2-yl)acetamide]
0.0001 to 10 µM | 10 to 100 µM | O=C1CC(COc2nc(N3C[C@H]4CC[C@@H](C3)N4)c3ccc(-c4cc(O)cc5ccccc45)c(F)c3n2)CN1 (stereo partly drawn) [P-0766, 4-(((4-((1R,5S)-3,8-diazabicyclo[3.2.1]octan-3-yl)-8-fluoro-7-(3-hydroxynaphthalen-1-yl)quinazolin-2-yl)oxy)methyl)pyrrolidin-2-one]
10 to 100 µM | 10 to 100 µM | CN(C)C(=O)CCNc1nc(N2C[C@H]3CC[C@@H](C2)N3)c2ccc(-c3cc(O)cc4ccccc34)cc2n1 [P-0058, 3-((4-((1R,5S)-3,8-diazabicyclo[3.2.1]octan-3-yl)-7-(3-hydroxynaphthalen-1-yl)quinazolin-2-yl)amino)-N,N-dimethylpropanamide]
0.0001 to 10 µM | 10 to 100 µM | Oc1cc(-c2ccc3c(N4C[C@H]5CC[C@@H](C4)N5)nc(OCc4cnco4)nc3c2F)c2ccccc2c1 [P-0716, 4-(4-((1R,5S)-3,8-diazabicyclo[3.2.1]octan-3-yl)-8-fluoro-2-(oxazol-5-ylmethoxy)quinazolin-7-yl)naphthalen-2-ol]
0.0001 to 10 µM | 10 to 100 µM | Cc1cc(CN2[C@@H]3CC[C@H]2CN(c2nc(OCC45CCCN4CCC5)nc4cc(-c5cc(O)cc6ccccc56)ccc24)C3)no1 [P-0006, 4-(4-((1R,5S)-8-((5-methylisoxazol-3-yl)methyl)-3,8-diazabicyclo[3.2.1]octan-3-yl)-2-((tetrahydro-1H-pyrrolizin-7a(5H)-yl)methoxy)quinazolin-7-yl)naphthalen-2-ol]
0.0001 to 10 µM | 100 to 1000 µM | O=C1CCC2(CN(c3nc(N4C[C@H]5CC[C@@H](C4)N5)c4ccc(-c5cc(O)cc6ccccc56)c(F)c4n3)C2)N1 [P-0680, 2-(4-((1R,5S)-3,8-diazabicyclo[3.2.1]octan-3-yl)-8-fluoro-7-(3-hydroxynaphthalen-1-yl)quinazolin-2-yl)-2,5-diazaspiro[3.4]octan-6-one]
0.0001 to 10 µM | 100 to 1000 µM | CC(C)(COc1nc(N2C[C@H]3CC[C@@H](C2)N3)c2ccc(-c3cc(O)cc4ccccc34)c(F)c2n1)NC(=O)OCc1ccccc1 [P-0735, benzyl (1-((4-((1R,5S)-3,8-diazabicyclo[3.2.1]octan-3-yl)-8-fluoro-7-(3-hydroxynaphthalen-1-yl)quinazolin-2-yl)oxy)-2-methylpropan-2-yl)carbamate]
0.0001 to 10 µM | 10 to 100 µM | COc1cccc2[nH]cc(-c3c(F)cc4c(N5C[C@H]6CC[C@@H](C5)N6)nc(OC[C@@H]5CCCN5C)nc4c3F)c12 [P-0797, 4-((1R,5S)-3,8-diazabicyclo[3.2.1]octan-3-yl)-6,8-difluoro-7-(4-methoxy-1H-indol-3-yl)-2-(((S)-1-methylpyrrolidin-2-yl)methoxy)quinazoline]
10 to 100 µM | 10 to 100 µM | CN(C)C(=O)CNc1nc(N2C[C@H]3CC[C@@H](C2)N3)c2ccc(-c3cc(O)cc4ccccc34)cc2n1 [P-0059, 2-((4-((1R,5S)-3,8-diazabicyclo[3.2.1]octan-3-yl)-7-(3-hydroxynaphthalen-1-yl)quinazolin-2-yl)amino)-N,N-dimethylacetamide]
0.0001 to 10 µM | 0.0001 to 10 µM | CP(C)(=O)CC(=O)N1[C@@H]2CC[C@H]1CN(c1nc(OCC34CCCN3CCC4)nc3c(F)c(-c4cc(O)cc5ccccc45)ccc13)C2 [P-0773, 2-(dimethylphosphoryl)-1-((1R,5S)-3-(8-fluoro-7-(3-hydroxynaphthalen-1-yl)-2-((tetrahydro-1H-pyrrolizin-7a(5H)-yl)methoxy)quinazolin-4-yl)-3,8-diazabicyclo[3.2.1]octan-8-yl)ethan-1-one]
0.0001 to 10 µM | 10 to 100 µM | Oc1cc(-c2ccc3c(N4C[C@H]5CC[C@@H](C4)N5)nc(OCC(F)F)nc3c2F)c2ccccc2c1 [P-0749, 4-(4-((1R,5S)-3,8-diazabicyclo[3.2.1]octan-3-yl)-2-(2,2-difluoroethoxy)-8-fluoroquinazolin-7-yl)naphthalen-2-ol]
0.0001 to 10 µM | 0.0001 to 10 µM | CN1CCC[C@H]1COc1nc(N2C[C@H]3CC[C@@H](C2)N3S(N)(=O)=O)c2ccc(-c3cc(O)cc4ccccc34)c(F)c2n1 [P-0663, (1R,5S)-3-(8-fluoro-7-(3-hydroxynaphthalen-1-yl)-2-(((S)-1-methylpyrrolidin-2-yl)methoxy)quinazolin-4-yl)-3,8-diazabicyclo[3.2.1]octane-8-sulfonamide]
0.0001 to 10 µM | 10 to 100 µM | CC(=O)NCCc1nc(N2C[C@H]3CC[C@@H](C2)N3)c2ccc(-c3cc(O)cc4ccccc34)c(F)c2n1 [P-0770, N-(2-(4-((1R,5S)-3,8-diazabicyclo[3.2.1]octan-3-yl)-8-fluoro-7-(3-hydroxynaphthalen-1-yl)quinazolin-2-yl)ethyl)acetamide]
0.0001 to 10 µM | 10 to 100 µM | Oc1cc(-c2ccc3c(N4C[C@H]5CC[C@@H](C4)N5)nc(OCCn4cccc4)nc3c2F)c2ccccc2c1 [P-0691, 4-(2-(2-(1H-pyrrol-1-yl)ethoxy)-4-((1R,5S)-3,8-diazabicyclo[3.2.1]octan-3-yl)-8-fluoroquinazolin-7-yl)naphthalen-2-ol]
0.0001 to 10 µM | 100 to 1000 µM | O=C(CCO)Nc1nc(N2C[C@H]3CC[C@@H](C2)N3)c2ccc(-c3cc(O)cc4ccccc34)c(F)c2n1 [P-0655, N-(4-((1R,5S)-3,8-diazabicyclo[3.2.1]octan-3-yl)-8-fluoro-7-(3-hydroxynaphthalen-1-yl)quinazolin-2-yl)-3-hydroxypropanamide]
